Experimental data reported in US6515018B1, “Synergistic compositions for lycopene and Vitamin E for the prevention of LDL oxidation” (Lycored Natural Products Industries Ltd., priority 1997, dated 2003).

What was measured:
Format in all cases: biochemical, human
LDL [1] = assay: CuSO4-induced LDL oxidation measured by lipid peroxides formation; details: CuSO4 (5 μM)-induced LDL oxidation; > = maximal concentration used did not achieve 50% inhibition
Experimental: (§1) Stock solutions of 1 mM of purified lycopene or of 10 mg/ml of tomato's oleoresin, were prepared in Tetrahydrofuran (THF, HPLC grade). All procedures were performed in dim light. LDL was incubated with the respective concentrations of tomato's oleoresin or with 3 μM of lycopene (3 μl/ml THF, derived from a stock solution of 1 mM) for 30 minutes at 37° C. in the dark. LDL incubated with THF alone served as control.
(§2) Oxidation of LDL was carried out in a shaking water bath at 37° C. under air, in plastic tubes (1 cm in diameter). For metal ions dependent oxidation LDL was incubated for 4 hours at 37° C. with freshly prepared CuSO4 (5 μM).
(§3) LDL oxidation was determined by measuring the amount of thiobarbituric acid reactive substances (TBARS) (See: Buege J. A. and Aust S. D. Microsomal lipid peroxidation. Methods Enzymol. 1978; 52: 302-310) and by lipid peroxides formation using a commercially available kit.
(§4) LDL (100 μg of protein/ml) was preincubated for 30 min at 37° C. with either vitamin E or lycopene in various forms. LDL oxidation was induced by the addition of 5 μM of CuSO4 and was […] for 30 min at 37° C. LDL oxidaton was measured by the TBARS assay or by measuring the inhibition of the formation of lipid peroxides. Results are shown in FIG. 1 for vitamin E inhibition and FIG. 2 for crystalline lycopene. […]

LDL [2] = assay: CuSO4-induced LDL oxidation measured by TBARS formation; details: CuSO4 (5 μM)-induced LDL oxidation; oleoresin concentration as lycopene; read-out: IC50 for the inhibition of TBARS formation
Experimental: as §1, §2, §3, §4

LDL [3] = assay: Copper ions-induced LDL oxidation, Colby equation data, readout not marked (TBARS / lipid peroxides)
Experimental: as §1, §2, §3, §4

Row | Molecule | IC50 (LDL [1]) | IC50 (LDL [2]) | B = Percent control of lycopene alone (LDL [3]; Experiment 1: 1 μM crystalline lycopene alone) | A = Percent control of vitamin E alone (LDL [3]; 1 μM vitamin E alone)
1 | CC(C)=CCC/C(C)=C/C=C/C(C)=C/C=C/C(C)=C/C=C/C=C(C)/C=C/C=C(C)/C=C/C=C(\C)CCC=C(C)C [Crystalline lycopene, lycopene] | > 50 µM | > 50 µM | 0% | 
2 | Vitamin E | 6.5 µM | 6 µM |  | 0%
